Source: patent EP0637237B1, “CALCIUM RECEPTOR-ACTIVE MOLECULES” (BRIGHAM AND WOMEN'S HOSPITAL, INC., priority 1993, dated 1994)
Like-named read-outs stand apart in the source and are kept apart here.

Legend:
C-cell Ca^2+ receptor = molecular target: T1, C-cell Ca^2+ receptor (Rattus norvegicus, UniProt P48442); type: cell-based; details: Table 6; rMTC 6-23 cells, fura-2; inactive = no increase in cytosolic Ca2+ at 1-5 mM
T1 sequence (P48442 20-1079): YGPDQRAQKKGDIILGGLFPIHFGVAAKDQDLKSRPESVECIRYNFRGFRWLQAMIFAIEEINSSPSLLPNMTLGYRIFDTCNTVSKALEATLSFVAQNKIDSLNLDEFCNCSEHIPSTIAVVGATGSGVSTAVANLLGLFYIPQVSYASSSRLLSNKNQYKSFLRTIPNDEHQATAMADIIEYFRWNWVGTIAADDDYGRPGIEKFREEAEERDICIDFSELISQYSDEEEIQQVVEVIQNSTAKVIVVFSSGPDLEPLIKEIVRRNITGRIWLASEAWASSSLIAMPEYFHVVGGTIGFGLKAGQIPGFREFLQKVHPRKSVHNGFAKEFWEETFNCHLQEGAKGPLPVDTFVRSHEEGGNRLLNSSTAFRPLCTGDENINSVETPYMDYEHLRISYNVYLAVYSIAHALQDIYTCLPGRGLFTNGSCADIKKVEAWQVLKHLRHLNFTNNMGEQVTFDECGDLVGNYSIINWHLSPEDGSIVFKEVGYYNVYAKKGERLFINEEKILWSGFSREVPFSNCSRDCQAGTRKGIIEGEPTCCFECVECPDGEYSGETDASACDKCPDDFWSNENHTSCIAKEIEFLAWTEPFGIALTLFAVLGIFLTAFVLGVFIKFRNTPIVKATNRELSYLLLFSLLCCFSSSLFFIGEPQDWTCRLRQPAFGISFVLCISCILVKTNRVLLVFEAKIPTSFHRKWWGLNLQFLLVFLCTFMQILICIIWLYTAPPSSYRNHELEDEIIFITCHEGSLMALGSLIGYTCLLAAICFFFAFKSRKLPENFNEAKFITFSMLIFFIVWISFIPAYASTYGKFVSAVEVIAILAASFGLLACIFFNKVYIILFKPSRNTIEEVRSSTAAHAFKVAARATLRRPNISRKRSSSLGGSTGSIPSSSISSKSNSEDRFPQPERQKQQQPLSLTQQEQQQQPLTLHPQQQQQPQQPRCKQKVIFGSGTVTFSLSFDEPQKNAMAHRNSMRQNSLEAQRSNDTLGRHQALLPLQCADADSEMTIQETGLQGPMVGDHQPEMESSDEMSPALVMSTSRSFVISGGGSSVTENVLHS

[1] = Serum or whole blood ionized Ca2+ and PTH in rats in vivo; parameters: species or system Sprague-Dawley rats
From the text: Male Sprague-Dawley rates (200 g) were maintained on a low calcium diet for one week prior to receiving test substance or vehicle as control. Blood was collected from the tail vein three hours after the intra-peritoneal administration of NPS 467. […]

[2] = Serum ionized Ca2+ in the 5/6 nephrectomized rat (secondary hyperparathyroidism model); type: in vivo, Sprague-Dawley rats; details: 10 mg/kg i.p.
From the text: An accepted and widely used animal model of secondary hyperparathyroidism arising from chronic renal failure is the 5/6 nephrectomized rat. […] Male Sprague-Dawley rats (250 g) received a 5/6 nephrectomy and were allowed to recover for 2 weeks. At this time they were normocalcemic (due to elevated levels of serum PTH).

[3] = Serum ionized Ca2+ in parathyroidectomized rats; type: in vivo; details: single dose 10 mg/kg i.p., over a period of 6 hours
From the text: To determine the primary target tissue upon which NPS 467 acts to cause a hypocalcemic response, the para thyroid glands in rats were surgically removed.

[4] = molecular target: T2, parathyroid cell Ca^2+ receptor (Bos taurus, UniProt P35384); type: cell-based, bovine
T2 sequence (P35384 20-1085): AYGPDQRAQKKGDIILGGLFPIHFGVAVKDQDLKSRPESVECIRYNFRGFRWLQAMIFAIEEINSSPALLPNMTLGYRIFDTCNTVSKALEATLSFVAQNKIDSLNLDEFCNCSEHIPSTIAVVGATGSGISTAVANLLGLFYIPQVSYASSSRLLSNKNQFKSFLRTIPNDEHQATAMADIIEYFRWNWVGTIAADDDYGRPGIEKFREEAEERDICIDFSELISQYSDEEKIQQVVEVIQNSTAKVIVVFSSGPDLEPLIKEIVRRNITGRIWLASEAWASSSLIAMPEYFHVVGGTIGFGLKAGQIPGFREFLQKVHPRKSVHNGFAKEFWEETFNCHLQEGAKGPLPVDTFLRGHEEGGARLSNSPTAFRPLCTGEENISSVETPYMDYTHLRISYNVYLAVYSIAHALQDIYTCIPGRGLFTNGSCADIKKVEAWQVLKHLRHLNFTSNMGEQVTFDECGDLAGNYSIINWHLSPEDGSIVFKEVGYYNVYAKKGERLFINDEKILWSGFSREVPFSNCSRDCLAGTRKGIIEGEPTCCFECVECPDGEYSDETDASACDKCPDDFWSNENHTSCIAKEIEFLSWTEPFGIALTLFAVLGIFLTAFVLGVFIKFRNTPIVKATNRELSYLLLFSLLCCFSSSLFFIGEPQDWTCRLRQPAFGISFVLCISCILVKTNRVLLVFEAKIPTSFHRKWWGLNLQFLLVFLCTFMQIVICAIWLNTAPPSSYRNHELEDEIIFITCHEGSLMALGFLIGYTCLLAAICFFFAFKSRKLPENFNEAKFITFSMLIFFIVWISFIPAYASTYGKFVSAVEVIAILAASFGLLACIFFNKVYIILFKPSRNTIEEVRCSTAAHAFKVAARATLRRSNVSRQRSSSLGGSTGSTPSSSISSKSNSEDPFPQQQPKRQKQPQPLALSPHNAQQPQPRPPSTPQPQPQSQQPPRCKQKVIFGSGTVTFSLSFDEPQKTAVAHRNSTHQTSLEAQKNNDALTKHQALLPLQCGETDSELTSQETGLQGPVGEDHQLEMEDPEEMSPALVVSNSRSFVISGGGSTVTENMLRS

[5] = normal calcium-replete diet, 10 mg/kg i.p.

Structure (SMILES) | EC50(µM) C-CELL (C-cell Ca^2+ receptor) | potency in lowering serum Ca2+ in vivo, enantiomers compared ([1]; each compound at 5 mg/kg body weight, Fig. 42) | time serum ionized Ca2+ remained depressed [1, 5] | time to maximal fall in serum ionized Ca2+ [1, 5] | decrease in serum ionized Ca2+ from the control level ([1]; normal calcium-replete diet, single dose 10 mg/kg i.p., at 1 hr) | time of the fall in serum ionized Ca2+ [2] | serum ionized Ca2+ levels ([2]; 5/6 nephrectomy, 2 weeks recovery) | change in serum ionized Ca2+ levels [3] | [Ca2+]i response in Ca2+-free buffer ([4]; 30 àM NPS R-467 alone, Ca2+-free buffer) | [Ca2+]i response in Ca2+-free buffer after neomycin ([4]; NPS R-467 30 µM added after 10 µM neomycin) | [Ca2+]i response in Ca2+-free buffer after neomycin ([4]; NPS R-467 30 µM added after 100 µM neomycin)
NCCCNCCCCNCCCNCCCN(O)CCCNC(=O)Cc1c[nH]c2cccc(O)c12 [NPS 015] | inactive |  |  |  |  |  |  |  |  |  | 
COc1cccc([C@@H](C)NCCCc2ccccc2)c1 [NPS R-467] |  | more potent than the S-isomer in lowering serum Ca^2+ in vivo | up to 6 hours | ≤ 1 h | 22% | ≤ 2 h | 83 % of controls | did not cause any change in serum ionized Ca^2+ levels | no increase in [Ca^2+]i | elicited a transient increase in [Ca^2+]i | did not cause an increase in [Ca^2+]i
